How the values were obtained:
[1] = test system: JUN; assay: Western blotting time course for JUN, Jurkat T cells; type: cell-based, human; conditions: Western blot time course
Experimental: (§1) Western blotting. Cells were treated with compounds and times indicated and total cell lysates were prepared in RIPA buffer. Lysates (10 μg) were resolved by SDS-PAGE and transferred to Immobilon-P polyvinylidene difluoride (PVDF) membranes (Millipore, USA).
(§2) Membranes were blocked with 5% skim milk and incubated with rabbit monoclonal anti-c-Jun (Abcam, cat. no. ab32137; mouse, rat and human reactive) antibody, rabbit monoclonal anti-PD-1 (Abcam, cat. no. ab214421) antibody, mouse monoclonal β-actin antibody (Sigma-Aldrich, cat. no. A5316), anti-phospho-SAPK/JNK (Thr^183/Tyr^185) (98F2) (CST, cat. no. 4671) antibody, anti-phospho-p44/42 MAPK (ERK1/2) (Thr^202/Tyr^204) (D13.14.4E) (CST, cat. no. 4370) antibody, anti-phospho-p38 MAPK (Thr^180/Tyr^182) (D3F9) (CST, cat. no. 4511) antibody, anti-SAPK/JNK antibody (CST, cat. no. 9252), anti-p44/42 MAPK (ERK1/2) (137F5) antibody (CST, cat. no. 4695), anti-p38 MAPK antibody (CST, cat. no. 9212), anti-DUSP8 antibody (Abcam, cat. no. ab198175) or anti-c-MAF (BLR045F) antibody (Abcam, cat. no. ab243901). […] Chemiluminescence was detected using the Western Lightning Chemiluminescence system (Thermo Scientific, USA) and ImageQuant™ LAS 4000 biomolecular imager (GE Healthcare Life Sciences, USA). Band intensity in images generated with the LAS 4000 was quantified using NIH Image J. […]

[2] = test system: p-JNK; assay: Western blotting time course for p-JNK, Jurkat T cells; type: cell-based, human; conditions: Western blot time course
Experimental: as §1, §2

[3] = test system: B16F10 melanoma; assay: Melanoma growth in C57BL/6J mice bearing s.c. B16F10 tumors; type: in vivo, mouse
Experimental: Melanoma growth studies in mice. Six-to-eight week old C57BL/6J mice (sourced from Australian Resource Centre, Perth) were inoculated subcutaneously (s.c.) with B16F10 cells (1×10^5 cells/mouse in 100 μl DMEM containing 10% FBS with 50% Matrigel). InVivoPlus anti-mouse PD-1 (CD279) (BioXCell, BP0033-2) or InVivoPlus polyclonal Armenian hamster IgG (Bio X Cell, BP0091) was administered intraperitoneally (i.p.) (100 μg) twice a week. Treatment commenced on Day 7.
Alternatively, BT2 was suspended at 10 mg/ml in vehicle (saline containing 0.5% (v/v) Tween 80 and 0.01% (v/v) DMSO) and sonicated prior to administration. Vehicle or BT2 was administered i.p. (20 ml/kg and 200 mg/kg, respectively) once a day on a 5 days-on/2 days-off schedule. Treatment commenced when tumors were palpable on Day 5.
Tumors were measured by length and width in mm twice per week for MDA-MB-435 in SCID mice and by length, width and height in mm once per day for B16F10 in C57BL/6J mice. Tumor volumes were calculated using formula V=(L×W×H×π)/6 (B16F10) or V=L×W×W/2 (MDA-MB-435). If a second tumor was detected in an animal, both tumor volumes were measured and their volumes combined. Animal protocols were approved by the Explora Biolabs' Institutional Animal Care and Use Committee (IACUC) and the UNSW Animal Care and Ethics Committee.
The preceding xenograft studies showing anti-tumor effects in immunocompromised mice when BT2 is delivered intratumorally (i.t.) but not systemically (i.p.) led the inventors to hypothesize that BT2 could rely upon an active immune system in order to effect tumor growth inhibition. Therefore, the effect of BT2 was tested in an immunocompetent mouse model of melanoma growth using B16F10 melanoma. […]
To assess the effect of BT2 in the same model, C57BL/6J mice bearing s.c. B16F10 tumors were administered with BT2 or vehicle (200 mg/kg or 20 ml/kg, respectively, i.p.) once a day on a 5 days-on/2 days-off schedule. […] Tumor size on Day 17 measured using callipers (FIG. 10A) correlated with isolated weighed tumors (FIG. 10B).

[4] = test system: p-ERK (Thr^202/Tyr^204); assay: Western blotting for p-ERK, MeWo melanoma cells; type: cell-based, human; conditions: 10 or 100 nM, 24 h
Experimental: as §1
Membranes were blocked with 5% skim milk and incubated with rabbit monoclonal anti-c-Jun (Abcam, cat. no. ab32137; mouse, rat and human reactive) antibody, rabbit monoclonal anti-PD-1 (Abcam, cat. no. ab214421) antibody, mouse monoclonal β-actin antibody (Sigma-Aldrich, cat. no. A5316), anti-phospho-SAPK/JNK (Thr^183/Tyr^185) (98F2) (CST, cat. no. 4671) antibody, anti-phospho-p44/42 MAPK (ERK1/2) (Thr^202/Tyr^204) (D13.14.4E) (CST, cat. no. 4370) antibody, anti-phospho-p38 MAPK (Thr^180/Tyr^182) (D3F9) (CST, cat. no. 4511) antibody, anti-SAPK/JNK antibody (CST, cat. no. 9252), anti-p44/42 MAPK (ERK1/2) (137F5) antibody (CST, cat. no. […] Chemiluminescence was detected using the Western Lightning Chemiluminescence system (Thermo Scientific, USA) and ImageQuant™ LAS 4000 biomolecular imager (GE Healthcare Life Sciences, USA). Band intensity in images generated with the LAS 4000 was quantified using NIH Image J.
The effect of BT2 on ERK phosphorylation (p-ERK) was evaluated in human melanoma cells given that MAP kinase activation is key to melanoma progression and the paucity of clinically approved ERK inhibitors. […]

[5] = test system: endothelial cells; conditions: shown previously, cited from earlier work
[6] = test system: JUN; assay: Western blotting for JUN, MDA-MB-435 cells; type: cell-based, human; conditions: MDA-MB-435 cells (BRAF^V600E), 24 h, dose-dependent
Experimental: as §1, §2

[7] = test system: inflammation; conditions: arthritic mice (Yeh et al., 2021); cited from earlier work

Compound: CCOC(=O)Nc1ccc2c(c1)C(=O)N(CC)c1ccccc1O2 [BT2, (10-ethyl-11-oxo-10,11-dihydro-dibenzo[b,f][1,4]oxazepin-2-yl)-carbamic acid ethyl ester]
- time to induction of JUN at the protein level [1]: 2 to 4 h
- time to stimulation of JNK phosphorylation [2]: ≤ 1 h
- B16F10 tumor growth (volume) ([3]; C57BL/6J mice, 200 mg/kg i.p. once a day, 5 days-on/2 days-off, from Day 5): significant B16F10 growth inhibition from Day 9
- body weight ([3]; C57BL/6J mice, B16F10, 200 mg/kg i.p. once a day, 5 days-on/2 days-off): no adverse effect on body weight
- mice with tumor size exceeding 500 mm^3 (Kaplan-Meier analysis) ([3]; Day 17, 200 mg/kg i.p., vehicle 75%): none
- ERK phosphorylation (p-ERK, Western blot) [4]: suppressed ERK phosphorylation
- ERK phosphorylation and expression of FosB/ΔFosB and VCAM-1, and VEGF ([5]; endothelial cells): inhibit
- endothelial cell proliferation and migration, angiogenesis and wound repair [5]: inhibit
- JUN expression (Western blot) [6]: increased
- anti-inflammatory properties [7]: possesses anti-inflammatory properties

Reference: patent US20250352555A1, “METHOD OF INCREASING IMMUNE CELL ACTIVATION AND/OR TREATING CANCER USING DIBENZOXAZEPINONES” (VASCULAR THERAPEUTICS PTY LTD, priority 2022, published 2025)
